The text below walks through data of US7579371B2, “Methods of using [3.2.0] heterocyclic compounds and analogs thereof” (Nereus Pharmaceuticals, Inc., priority 2004, dated 2009).

One series relates to HL-60/MX2. Nature of the series: Cell growth inhibition assay (resazurin, 48 h). The settings on record: for EC50: HL-60/MX2, 48 h. How it is done:
The DNA binding agent Mitoxantrone was included as a control, as HL-60/MX2 cells are reported to be resistant to this chemotherapeutic agent (Harker W. G. et al. 1989).
Concentrations ranging from 6.32 μM to 2 nM were tested for II-2 and II-4.
HL-60/MX2 is a multidrug resistant tumor cell line derived from the human promyelocytic leukemia cell line, HL-60 and expresses reduced topoisomerase II activity. […] Mitoxantrone, the topoisomerase II targeting agent was included as a control.

Series [1] concerns the target T1, human erythrocyte proteasomes, Caspase-like activity (Homo sapiens, UniProt P28072).
T1 construct: from tissue; host or cells: human erythrocytes
Description: Caspase-like activity of human erythrocyte proteasomes. The format is biochemical.

Series [2] is described as follows: Maximum tolerated dose determination in female BALB/c mice. In kind it is in vivo, mouse. An excerpt: In vivo studies were designed to determine the MTD of Salinosporamide A when administered intravenously to female BALB/c mice.
Animals were observed daily for clinical signs and were weighed individually twice weekly until the end of the experiment (maximum of 14 days after the last day of dosing).

A further series has as its system NF-κB/Luc 293 cells. Nature of the series: Viability of NF-κB/Luc 293 cells (resazurin, 24 hr). In kind it is cell-based, human. The settings on record: ~7 nM.
A further series in a line: LogD7.4 determination. The settings on record: pH 7.4. An excerpt:
(§1) These studies consisted of solubility assessment, LogD^7.4 determination and a preliminary screen to detect cytochrome P450 enzyme inhibition.

A further series concerns U266. Description: Cell growth inhibition assay (resazurin, 48 h). In kind it is cell-based. The following applies: Homo sapiens, U-266, 48 h, U266, 48 h.
The subject of a further series is Jurkat cells. Description: Cytotoxicity against Jurkat cells. In kind it is cell-based, human.
The next series relates to HEK293. Nature of the series: Cell growth inhibition assay (resazurin, 48 h). The format is cell-based. The following applies: Homo sapiens, HEK293, 48 h.
The next series concerns the target CYP3A4 (Homo sapiens, UniProt P08684). Description: Preliminary P450 inhibition screen. The settings on record: tested at 10 μM.
Text: as §1

The target in another series is CYP2C9 (Homo sapiens, UniProt P11712). Nature of the series: Preliminary P450 inhibition screen. The settings on record: tested at 10 μM.
Text: as §1

In a further series the target is CYP1A2 (Homo sapiens, UniProt P05177). Description: Preliminary P450 inhibition screen. The settings on record: tested at 10 μM.
Text: as §1

Another series deals with CYP2C19 (Homo sapiens, UniProt P33261). Nature of the series: Preliminary P450 inhibition screen. The following applies: tested at 10 μM.
Text: as §1

For another series, the target named is CYP2D6 (Homo sapiens, UniProt P10635). Nature of the series: Preliminary P450 inhibition screen. The settings on record: tested at 10 μM.
Text: as §1

Series [3] relates to MM.1R and Doxorubicin-resistant Dox-40 cell lines.
A further series concerns Caspase-3. Description: Caspase-3 activity assay in Jurkat cells. The format is cell-based, human. The following applies: EC50 concentration, 19 hours. How it is done:
Jurkat cells were plated at 2×10^6 cells/3 mL per well in a 6-well plate and incubated at 37° C., 5% (v/v) CO2 and 95% (v/v) humidity. […] Bhalla, et al., Blood 82:3133 (1993). […] Cells treated with 0.25% DMSO served as the negative control. The cells were collected by centrifugation and the media removed. Cell pellets were processed for the Caspase-3 activity assay as described in the manufacturer's protocol (EnzChek Caspase-3 Assay Kit from Molecular Probes (E-13183; see Appendix G, which form a part of this application and is also available at hypertext transfer protocol on the worldwide web at “probes.com.media/pis/mp13183.pdf.”. In brief, cell pellets were lysed on ice, mixed with the EnzChek Caspase-3 components in a 96-well plate, and then incubated in the dark for 30 minutes prior to reading fluorescence of cleaved benzyloxycarbonyl-DEVD-[…] using a Packard Fusion with λex=485 nm and λem=530 nm filters. Protein concentrations for lysates were determined using the BCA Protein Assay Kit (Pierce) and these values were used for normalization.

For series [4], the system named is 20S proteasome chymotrypsin-like activity in RPMI 8226 cells. Description: Chymotrypsin-like activity of 20S proteasomes in treated RPMI 8226 cells. In kind it is cell-based, human. The settings on record: 1 nM, 1 hr. Here is the method:
RPMI 8226 (ATCC, CCL-155), the human multiple myeloma cell line, was cultured in RPMI 1640 medium supplemented with 2 mM L-glutamine, 100 units/ml penicillin, 100 μg/ml streptomycin, 1 mM sodium pyruvate and 10% heat inactivated fetal bovine serum at 37° C., 5% CO2 and 95% humidified air. […] DMSO was used as the vehicle control at a final concentration of 0.1%. Following 1 hr incubation of RMPI 8226 cells with the compounds, the cells were pelleted by centrifugation at 2,000 rpm for 10 sec at room temperature and washed 3× with ice-cold 1× Dulbecco's Phosphate-Buffered Saline (DPBS, Mediatech, Herndon, Va.). DPBS washed cells were lysed on ice for 15 min in lysis buffer (20 mM HEPES, 0.5 mM EDTA, 0.05% Triton X-100, pH 7.3) supplemented with protease inhibitor cocktail (Roche Diagnostics, Indianapolis, Ind.). Cell debris was pelleted by centrifugation at 14,000 rpm for 10 min, 4° C. and supernatants (=cell lysates) were transferred to a new tube. Protein concentration was determined by the BCA protein assay kit (Pierce Biotechnology, Rockford, Ill.). […] The released coumarin (AMC) was measured fluorometrically by using λex=390 nm and λem=460 nm. The assay was performed in a microtiter plate (Corning 3904) and followed kinetically with measurements every five minutes for 2 hr. The total amount of protein used for each assay was 20 μg. […]

In a further series the test system is p21 and p27. Nature of the series: Western blot of cell cycle regulatory proteins p21 and p27. The format is cell-based, human. The settings on record: various concentrations, preliminary. An excerpt: The ubiquitin-proteasome pathway is an essential proteolytic system involved in cell cycle control by regulating the degradation of cyclins and cyclin-dependent kinase (Cdk) inhibitors such as p21 and p27. Pagano, et al., Science 269:682 (1995), Kisselev, et al., Chem Biol 8:739 (2001), King, et al., Science 274:1652 (1996). Furthermore, p21 and p27 protein levels are increased in the presence of proteasome inhibitors. Fukuchi, et al., Biochim Biophys Acta 1451:206 (1999), Takeuchi, et al, Jpn J Cancer Res 93:774 (2002).
The Western blots presented in FIG. 33 were reprobed using antibodies against p21 and p27 to determine the endogenous level of each protein and anti-Tubulin antibody was used to confirm equal loading of protein.

SMILES strings stand for the structures. Several values for one entry are separate records, joined by “and”; a condition that tells them apart may be missing. Equal values may be shown once.

Sequence of CYP1A2 (P05177 whole entry): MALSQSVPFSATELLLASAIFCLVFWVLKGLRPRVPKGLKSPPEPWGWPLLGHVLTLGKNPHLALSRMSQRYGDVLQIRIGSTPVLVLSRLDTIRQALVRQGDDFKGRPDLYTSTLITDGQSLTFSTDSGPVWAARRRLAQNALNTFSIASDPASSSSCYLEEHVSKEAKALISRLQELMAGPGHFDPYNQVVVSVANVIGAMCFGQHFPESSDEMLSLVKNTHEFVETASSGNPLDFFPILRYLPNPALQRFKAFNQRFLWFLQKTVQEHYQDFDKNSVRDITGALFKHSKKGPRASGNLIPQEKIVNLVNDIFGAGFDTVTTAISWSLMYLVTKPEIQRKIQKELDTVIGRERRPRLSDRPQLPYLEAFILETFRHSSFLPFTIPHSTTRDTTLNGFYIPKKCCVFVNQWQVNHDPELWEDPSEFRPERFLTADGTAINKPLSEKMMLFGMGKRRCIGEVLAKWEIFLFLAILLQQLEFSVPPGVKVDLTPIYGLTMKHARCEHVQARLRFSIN
Sequence of CYP3A4 (P08684 whole entry): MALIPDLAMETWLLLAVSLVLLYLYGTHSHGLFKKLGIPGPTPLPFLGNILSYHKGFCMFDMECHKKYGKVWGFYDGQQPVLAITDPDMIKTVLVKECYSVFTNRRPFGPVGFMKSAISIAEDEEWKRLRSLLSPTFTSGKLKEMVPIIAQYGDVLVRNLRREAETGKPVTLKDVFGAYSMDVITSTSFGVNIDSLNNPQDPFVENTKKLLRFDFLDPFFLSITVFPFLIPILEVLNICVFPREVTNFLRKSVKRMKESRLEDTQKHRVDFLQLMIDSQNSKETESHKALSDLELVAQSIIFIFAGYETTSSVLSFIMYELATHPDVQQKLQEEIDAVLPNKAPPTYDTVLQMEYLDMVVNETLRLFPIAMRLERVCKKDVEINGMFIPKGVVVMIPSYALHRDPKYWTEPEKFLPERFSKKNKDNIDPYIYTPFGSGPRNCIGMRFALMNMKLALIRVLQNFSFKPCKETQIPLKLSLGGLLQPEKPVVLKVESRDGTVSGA
Sequence of CYP2C9 (P11712 whole entry): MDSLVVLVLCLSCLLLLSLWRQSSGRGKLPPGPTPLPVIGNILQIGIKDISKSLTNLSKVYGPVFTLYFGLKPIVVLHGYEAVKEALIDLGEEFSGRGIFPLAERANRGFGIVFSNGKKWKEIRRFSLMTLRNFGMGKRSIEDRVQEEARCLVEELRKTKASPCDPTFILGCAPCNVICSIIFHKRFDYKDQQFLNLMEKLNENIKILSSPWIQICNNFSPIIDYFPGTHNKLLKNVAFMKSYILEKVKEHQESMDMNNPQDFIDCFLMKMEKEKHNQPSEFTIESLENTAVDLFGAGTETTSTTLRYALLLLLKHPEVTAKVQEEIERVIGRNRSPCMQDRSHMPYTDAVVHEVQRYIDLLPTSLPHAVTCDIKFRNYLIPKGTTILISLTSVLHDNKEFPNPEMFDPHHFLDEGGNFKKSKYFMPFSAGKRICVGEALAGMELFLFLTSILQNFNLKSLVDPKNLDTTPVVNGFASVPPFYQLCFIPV
Sequence of CYP2D6 (P10635 whole entry): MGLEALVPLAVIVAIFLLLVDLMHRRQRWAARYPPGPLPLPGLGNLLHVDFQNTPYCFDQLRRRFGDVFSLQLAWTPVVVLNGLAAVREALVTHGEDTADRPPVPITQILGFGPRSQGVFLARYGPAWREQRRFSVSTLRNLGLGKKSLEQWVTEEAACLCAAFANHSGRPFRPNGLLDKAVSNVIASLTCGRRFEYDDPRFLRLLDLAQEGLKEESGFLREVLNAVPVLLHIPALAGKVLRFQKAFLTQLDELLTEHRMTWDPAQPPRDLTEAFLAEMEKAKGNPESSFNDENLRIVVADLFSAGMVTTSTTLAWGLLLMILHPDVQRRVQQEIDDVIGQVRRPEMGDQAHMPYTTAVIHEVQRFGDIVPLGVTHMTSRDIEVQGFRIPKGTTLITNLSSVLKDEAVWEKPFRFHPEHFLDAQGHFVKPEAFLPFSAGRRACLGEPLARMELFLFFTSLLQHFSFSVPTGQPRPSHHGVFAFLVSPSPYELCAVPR
Sequence of CYP2C19 (P33261 whole entry): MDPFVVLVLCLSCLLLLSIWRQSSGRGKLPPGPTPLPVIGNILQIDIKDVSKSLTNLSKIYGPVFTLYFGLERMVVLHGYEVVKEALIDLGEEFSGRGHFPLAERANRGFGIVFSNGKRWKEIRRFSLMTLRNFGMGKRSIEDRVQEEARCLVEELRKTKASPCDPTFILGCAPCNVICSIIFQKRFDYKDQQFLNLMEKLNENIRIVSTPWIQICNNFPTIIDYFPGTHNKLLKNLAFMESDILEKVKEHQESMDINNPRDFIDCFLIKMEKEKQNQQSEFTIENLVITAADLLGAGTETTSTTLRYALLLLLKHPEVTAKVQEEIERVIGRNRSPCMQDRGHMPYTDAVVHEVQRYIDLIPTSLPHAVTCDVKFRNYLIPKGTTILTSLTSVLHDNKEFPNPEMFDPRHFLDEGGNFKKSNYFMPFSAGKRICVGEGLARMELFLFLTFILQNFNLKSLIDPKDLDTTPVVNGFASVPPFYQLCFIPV

For `C[C@@]12OC(=O)[C@]1([C@@H](O)[C@@H]1C=CCCC1)NC(=O)[C@@H]2CCCl` [Formula II-16, Salinosporamide A], the “% cytotoxicity” value in the series on HL-60/MX2 (HL-60/MX2) is 84% and 89%; in the series on HL-60 (HL-60) it was 88% and 91%. For the same compound, the EC50 was 25 nM with HL-60/MX2; 28 nM in the series with HL-60/MX2 (Homo sapiens, HL60/MX2, 48 h); around 390 nM in series [1]; 30 nM in the series on HL-60 (HL-60, 48 h); 4.7 ± 0.7 nM in the series with U266; 10 nM in the series on Jurkat cells (Homo sapiens). In the series with HEK293, this compound registered an EC50 of 47 nM. Further, in series [2] (i.v. qdx5, female BALB/c mice), the “well tolerated dose, daily for five consecutive days” value is given as “up to 0.1 mg/kg”. For the same compound, the “tolerated single intravenous dose” value in [2] (qdx1, female BALB/c mice) is listed as “up to 0.25 mg/kg”. In the series with NF-κB/Luc 293 cells, the “cell viability at the NF-κB EC50 concentration” value is recorded as “did not affect cell viability”. For the same compound, the LogD7.4 in “LogD7.4 determination” was found to be 2.4. Moreover, the “% max cell kill” value with Jurkat cells is recorded as 97%. Moreover, at CYP3A4, the “inhibition of CYP3A4” value was 6%. At CYP2C9, the “inhibition of CYP2C9” value is reported as 6%. The “inhibition of CYP1A2” value at CYP1A2 came out at 3%. Further, the “inhibition of CYP2C19” value on CYP2C19 is on record as 22%. Besides, the “inhibition of CYP2D6” value at CYP2D6 was found to be 19%. Besides, in series [3], the “activity against drug resistant multiple myeloma” value is “active against MM.1R and Doxorubicin-resistant Dox-40 cell lines”. Also, the Caspase-3 activity result with Caspase-3 is on record as “activation of Caspase-3”. Moreover, the “% inhibition of the chymotrypsin-like activity of 20S proteasomes in RPMI 8226 cell lysates” value in series [4] was 30 ± 7%. In addition, in the series on p21 and p27, the “p21 and p27 protein levels” value is given as “elevated”.
